Experimental data taken from US20230203058A1, “MACROCYCLIC DIAMINE DERIVATIVES AS ENT INHIBITORS FOR THE TREATMENT OF CANCERS, AND COMBINATION THEREOF WITH ADENOSINE RECEPTOR ANTAGONISTS” (ITEOS BELGIUM SA, priority 2020, published 2023).

Target: T1, human ENT1 (Homo sapiens, UniProt Q99808)
T1 sequence (Q99808 1-456): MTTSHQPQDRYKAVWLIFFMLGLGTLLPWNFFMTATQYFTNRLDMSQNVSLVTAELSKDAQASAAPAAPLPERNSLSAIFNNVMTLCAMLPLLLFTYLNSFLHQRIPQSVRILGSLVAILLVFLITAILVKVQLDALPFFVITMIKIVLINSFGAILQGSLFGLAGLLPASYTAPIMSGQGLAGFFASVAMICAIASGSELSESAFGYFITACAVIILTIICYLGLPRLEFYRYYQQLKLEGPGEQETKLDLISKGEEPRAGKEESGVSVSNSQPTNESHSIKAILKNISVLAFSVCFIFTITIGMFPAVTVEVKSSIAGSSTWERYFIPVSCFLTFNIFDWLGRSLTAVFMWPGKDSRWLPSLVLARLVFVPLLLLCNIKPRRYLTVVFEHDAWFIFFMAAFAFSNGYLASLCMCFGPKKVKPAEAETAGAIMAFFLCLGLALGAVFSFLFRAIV
Test: ENT1 binding assay (competition with Sahenta-DY647 on JAR cells)
Design: JAR cells expressing ENT1 were bought from ATCC® (HTB-144TM); host or cells: JAR cells (human choriocarcinoma line; whole cells)
Conditions: competition with Sahenta-DY647 100 nM, 4° C.
Experimental: The present assay aims at showing that the compounds of the present invention can bind to human ENT1. The principle of the assay is a competition between the compounds of this invention and Sahenta-DY647, an ENT1 inhibitor that emits fluorescence (Ex = 630 nm, Em = 670 nm). By measuring the fluorescence at the end of the assay we could assess the binding potency of the compounds of the present invention.
JAR cells expressing ENT1 were bought from ATCC® (HTB-144TM). Cells were cultured in RPMI 1640 medium (LONZA®, #BE12-702F/U1) supplemented with 10% FBS (GIBCO®, #10270-106), 10 mM Hepes (LONZA®, #BE17-737E), 1 mM Sodium Pyruvate (LONZA®, #BE13-115E) and 2% Penicillin/Streptomycin (LONZA®, #DE17-603E) at 37° C. and 5% CO2. The assay was conducted on the following buffer: HBSS (LONZA®, #LO-527F) supplemented with 10 mM Hepes (LONZA®, #BE17-737E) and 0.1% BSA (Miltenyi®, #130-091-376) on the day of the assay. JAR cells were resuspended in the described buffer. Compounds of the present invention and Sahenta-DY647 were diluted 200X in the described buffer.
A total of 50000 cells were pre-incubated for 30 min at 4° C. with the compounds of the present invention before adding the corresponded IC90 of Sahenta-DY647 (100 nM) and incubate once more for 30 min at 4° C. The total volume of the reaction was 100 µL (50 µL of cells, 25 µL of the compounds of the present invention and 25 µL of Sahenta-DY647) in a 96 well plate, U-bottom (Greiner®, #650-180). The plates were washed 2X by centrifugation (4 min, 400 rcf at 4° C.) in the same buffer. Cells were resuspended in 70 µL of the buffer and 50 µL was transferred to a Black 384 Optiplate (PerkinElmer®, #6007279). Fluorescence (Ex = 630 nm, Em = 670 nm) was acquired on a Spectramax i3x (Molecular Devices®).

Structure (SMILES)	IC50 [nM]
COc1cc2cc(c1OC)OCCCC(OC(=O)c1cccc(C#N)c1)CCN1CCCN(CCCOC2=O)CC1 (stereo not drawn) [Compound 73, 74,75-dimethoxy-6-oxo-5,8-dioxa-1(1,4)-diazepana-7(1,3)-benzenacyclotetradecaphane-12-yl 3-cyanobenzoate]	1 to 20
COc1cc2cc(c1OC)OCCCC(OC(=O)c1ccc3c(c1)CCC(=O)N3)CCN1CCCN(CCCOC2=O)CC1 (stereo not drawn) [Compound 74, 74,75-dimethoxy-6-oxo-5,8-dioxa-1(1,4)-diazepana-7(1,3)-benzenacyclotetradecaphane-12-yl 2-oxo-1,2,3,4-tetrahydroquinoline-6-carboxylate]	1 to 20
COc1cc2cc(c1OC)OCCCC(OC(=O)c1cccc(OC(F)F)c1)CCN1CCCN(CCCOC2=O)CC1 (stereo not drawn) [Compound 75, 74,75-dimethoxy-6-oxo-5,8-dioxa-1(1,4)-diazepana-7(1,3)-benzenacyclotetradecaphane-12-yl 3-(difluoromethoxy)benzoate]	20 to 500
COc1cc2cc(c1OC)OCCCC(OC(=O)c1cc(Cl)cc(Cl)c1)CCN1CCCN(CCCOC2=O)CC1 (stereo not drawn) [Compound 76, 74,75-dimethoxy-6-oxo-5,8-dioxa-1(1,4)-diazepana-7(1,3)-benzenacyclotetradecaphane-12-yl 3,5-dichlorobenzoate]	20 to 500
COc1cc2cc(c1OC)OCCCC(OC(=O)c1cccc(Cl)c1Cl)CCN1CCCN(CCCOC2=O)CC1 (stereo not drawn) [Compound 78, 74,75-dimethoxy-6-oxo-5,8-dioxa-1(1,4)-diazepana-7(1,3)-benzenacyclotetradecaphane-12-yl 2,3-dichlorobenzoate]	1 to 20
COc1cc2cc(c1OC)OCCCC(OC(=O)c1c(F)ccc(C)c1Cl)CCN1CCCN(CCCOC2=O)CC1 (stereo not drawn) [Compound 79, 74,75-dimethoxy-6-oxo-5,8-dioxa-1(1,4)-diazepana-7(1,3)-benzenacyclotetradecaphane-12-yl 2-chloro-6-fluoro-3-methylbenzoate]	1 to 20
COc1cc2cc(c1OC)OCCCC(OC(=O)c1ccc(F)c(C(F)(F)F)c1)CCN1CCCN(CCCOC2=O)CC1 (stereo not drawn) [Compound 81, 74,75-dimethoxy-6-oxo-5,8-dioxa-1(1,4)-diazepana-7(1,3)-benzenacyclotetradecaphane-12-yl 4-fluoro-3-(trifluoromethyl)benzoate]	1 to 20
COc1cc2cc(c1OC)OCCCC(OC(=O)c1ccc(C#N)c(F)c1)CCN1CCCN(CCCOC2=O)CC1 (stereo not drawn) [Compound 82, 74,75-dimethoxy-6-oxo-5,8-dioxa-1(1,4)-diazepana-7(1,3)-benzenacyclotetradecaphane-12-yl 4-cyano-3-fluorobenzoate]	1 to 20
COc1cc2cc(c1OC)OCCCC(OC(=O)c1ccc(C(F)(F)F)cc1)CCN1CCCN(CCCOC2=O)CC1 (stereo not drawn) [Compound 83, 74,75-dimethoxy-6-oxo-5,8-dioxa-1(1,4)-diazepana-7(1,3)-benzenacyclotetradecaphane-12-yl 4-(trifluoromethyl)benzoate]	1 to 20
COc1cc2cc(c1OC)OCCCC(OC(=O)c1cc(F)cc(F)c1)CCN1CCCN(CCCOC2=O)CC1 (stereo not drawn) [Compound 84, 74,75-dimethoxy-6-oxo-5,8-dioxa-1(1,4)-diazepana-7(1,3)-benzenacyclotetradecaphane-12-yl 3,5-difluorobenzoate]	1 to 20
COc1cc2cc(c1OC)OCCCC(OC(=O)c1ccc(F)c(F)c1)CCN1CCCN(CCCOC2=O)CC1 (stereo not drawn) [Compound 85, 74,75-dimethoxy-6-oxo-5,8-dioxa-1(1,4)-diazepana-7(1,3)-benzenacyclotetradecaphane-12-yl 3,4-difluorobenzoate]	1 to 20
COc1cc2cc(c1OC)OCCCC(OC(=O)c1ccc(F)c(C#N)c1)CCN1CCCN(CCCOC2=O)CC1 (stereo not drawn) [Compound 86, 74,75-dimethoxy-6-oxo-5,8-dioxa-1(1,4)-diazepana-7(1,3)-benzenacyclotetradecaphane-12-yl 3-cyano-4-fluorobenzoate]	1 to 20
COc1cc2cc(c1OC)OCCCC(OC(=O)c1ccc(C#N)cc1)CCN1CCCN(CCCOC2=O)CC1 (stereo not drawn) [Compound 87, 74,75-dimethoxy-6-oxo-5,8-dioxa-1(1,4)-diazepana-7(1,3)-benzenacyclotetradecaphane-12-yl 4-cyanobenzoate]	1 to 20
COc1cc2cc(c1OC)OCCCC(OC(=O)c1ccc3c(c1)ncn3C)CCN1CCCN(CCCOC2=O)CC1 (stereo not drawn) [Compound 89, 74,75-dimethoxy-6-oxo-5,8-dioxa-1(1,4)-diazepana-7(1,3)-benzenacyclotetradecaphane-12-yl 1-methyl-1 H-benzo [d] imidazole-5-carboxylate]	1 to 20
COc1cc2cc(c1OC)OCCCC(OC(=O)c1ccc(-c3cnco3)cc1)CCN1CCCN(CCCOC2=O)CC1 (stereo not drawn) [Compound 90, 74,75-dimethoxy-6-oxo-5,8-dioxa-1(1,4)-diazepana-7(1,3)-benzenacyclotetradecaphane-12-yl 4-(oxazol-5-yl)benzoate]	1 to 20
COc1cc2cc(c1OC)OCCCC(OC(=O)c1cc(Cl)c(Cl)cc1F)CCN1CCCN(CCCOC2=O)CC1 (stereo not drawn) [Compound 91, 74,75-dimethoxy-6-oxo-5,8-dioxa-1(1,4)-diazepana-7(1,3)-benzenacyclotetradecaphane-12-yl 4,5-dichloro-2-fluorobenzoate]	1 to 20
CCOc1cc(C(=O)OC2CCCOc3cc(cc(OC)c3OC)C(=O)OCCCN3CCCN(CC2)CC3)cc(OCC)c1OCC (stereo not drawn) [Compound 92, 74,75-dimethoxy-6-oxo-5,8-dioxa-1(1,4)-diazepana-7(1,3)-benzenacyclotetradecaphane-12-yl 3,4,5-triethoxybenzoate]	1 to 20
COc1cc2cc(c1OC)OCCCC(OC(=O)CCC#N)CCN1CCCN(CCCOC2=O)CC1 (stereo not drawn) [Compound 95, 74,75-dimethoxy-6-oxo-5,8-dioxa-1(1,4)-diazepana-7(1,3)-benzenacyclotetradecaphane-12-yl 3-cyanopropanoate]	1 to 20
COc1cc2cc(c1OC)OCCCC(OC(=O)CCn1cnnn1)CCN1CCCN(CCCOC2=O)CC1 (stereo not drawn) [Compound 98, 74,75-dimethoxy-6-oxo-5,8-dioxa-1(1,4)-diazepana-7(1,3)-benzenacyclotetradecaphane-12-yl 3-(1 H-tetrazol-1-yl)propanoate]	1 to 20
CNC(=O)CCC(=O)OC1CCCOc2cc(cc(OC)c2OC)C(=O)OCCCN2CCCN(CC1)CC2 (stereo not drawn) [Compound 101, 74,75-dimethoxy-6-oxo-5,8-dioxa-1(1,4)-diazepana-7(1,3)-benzenacyclotetradecaphane-12-yl 4-(methylamino)-4-oxobutanoate]	1 to 20
COc1cc2cc(c1OC)OCCCC(OC(=O)CCn1cncn1)CCN1CCCN(CCCOC2=O)CC1 (stereo not drawn) [Compound 102, 74,75-dimethoxy-6-oxo-5,8-dioxa-1 (1,4)-diazepana-7(1,3)-benzenacyclotetradecaphane-12-yl 3-(1H-1,2,4-triazol-1-yl)propanoate]	1 to 20
COc1cc2cc(c1OC)OCCCC(OC(=O)CCC(=O)N1CCOCC1)CCN1CCCN(CCCOC2=O)CC1 (stereo not drawn) [Compound 103, 74,75-dimethoxy-6-oxo-5,8-dioxa-1 (1,4)-diazepana-7(1,3)-benzenacyclotetradecaphane-12-yl 4-morpholino-4-oxobutanoate]	1 to 20
COc1cc2cc(c1OC)OCCCC(OC(=O)CCOc1ccc(F)cc1)CCN1CCCN(CCCOC2=O)CC1 (stereo not drawn) [Compound 104, 74,75-dimethoxy-6-oxo-5,8-dioxa-1(1,4)-diazepana-7(1,3)-benzenacyclotetradecaphane-12-yl 3-(4-fluorophenoxy)propanoate]	1 to 20
COc1cc2cc(c1OC)OCCCC(OC(=O)C1CCC(F)(F)CC1)CCN1CCCN(CCCOC2=O)CC1 (stereo not drawn) [Compound 105, 74,75-dimethoxy-6-oxo-5,8-dioxa-1(1,4)-diazepana-7(1,3)-benzenacyclotetradecaphane-12-yl 4,4-difluorocyclohexane-1-carboxylate]	1 to 20
